Source: patent publication US20260217671A1, “COMPOUND FOR PREVENTING AND/OR TREATING NEURODEGENERATIVE DISEASE” (TYK MEDICINES, INC., priority 2023, published 2026)

Columns and labels:
[1] = Pharmacokinetic experiment (gavage, plasma); format: in vivo; details: rat, gavage (p.o.) 10 mg/kg; for AUC(0-t) / Cmax / Tmax: po
Method: Test Example 1 Pharmacokinetic Experiment
Accurately weighed approximately 10 mg of the test sample, dissolved in DMSO to a total volume of 10%, then slowly added 0.5% MC solvent to a total volume of 90% while stirring, sonicated, vortexed, and obtained a solution of visually homogeneous formulation with a concentration of 1 mg/mL; freshly prepared before use.
Pipetted 0.2 mL of the sample into a 1.5 mL centrifuge tube and stored at −80° C. for use in the concentration analysis of the drug solution.
The animals were housed in rat cages and fasted for at least 10 hours prior to the experiment, but had access to water. On the day of the experiment, the animals were weighed and marked on the tail. Blank blood samples were collected prior to drug administration. Blood was collected from the tail vein.
• Route of administration: gavage (p.o.) • Dosage concentration: 1 mg/ml • Dosage: 10 mg/kg • Volume: 10 mL/kg • Procedure: Caught the rat with left hand wearing bite-resistant gloves, hold it upright, inserted the gavage needle into its mouth and throat, and injected the drug into its stomach after confirming that there was no obvious resistance.
Test animals were sampled at 0.5 h, 1 h, 2 h, 4 h, 6 h, 8 h, 12 h, and 24 h post-administration, collected 0.1-0.2 ml of whole blood into EDTA-Na2 anticoagulant tubes, inverted the tubes 3-4 times to mix thoroughly, and centrifuged at 4° C. and 2000 g for 5 minutes to separate the upper layer of plasma. The plasma was promptly transferred to −80° C. for storage and analysis. Blood collection was performed via the tail vein.
(§1) 5. Sample Analysis and Data Processing
(§2) A quantitative detection method for the target compounds was established using Shimadzu liquid chromatography and Triple Quad TM 6500+AB mass spectrometry. The concentration of the parent drug in plasma was analyzed. The analysis results were controlled for variability using quality control samples, and the accuracy of the quality control samples should be between 80% and 120%.
The non-compartmental model in the winnonlin Phoenix software was used to calculate the main pharmacokinetic parameters. These included the area under the pharmacokinetic curve (AUC(0-t) and AUC(0-∞)), elimination half-life (T1/2), maximum plasma concentration (Cmax), and time to reach maximum plasma concentration (Tmax).

[2] = Brain-penetrating pharmacokinetic study (plasma, brain tissue); format: in vivo, Sprague-Dawley (SD) rat; details: SD rat, gavage (p.o.) 10 mg/kg single dose; for Kp: Sprague-Dawley, brain/plasma, po, read-out: Ratio of total drug in Brain tissue/plasma(B/P)
From the text: Test Example 2 Brain-Penetrating Pharmacokinetic Study
Solvent for Administration: 5% DMSO+10% Solutol HS15+85% physiological saline
Formulation preparation process: weighed an appropriate amount of powder, added an appropriate volume of DMSO, vortexed, then added an appropriate volume of Solutol solution, vortexed, and finally added an appropriate amount of physiological saline, vortexed and sonicated to obtain a homogeneous, clear formulation solution.
Two samples of the formulation were retained before administration, and the remaining formulation after administration was stored at 2-8° C. for shipment.
Laboratory animals were housed in the animal facility of Suzhou Xihua New Drug Development Co., Ltd. (license number: SYXK(Su)2021-0019). The animal facility was equipped with an air conditioning system and had good ventilation. The indoor temperature was maintained 20° C.-26° C., and the humidity was maintained 40%-70%4. Artificial lighting was used in the animal rooms, with 12 hours of light and 12 hours of darkness (except when work lighting was required for experimental operations and cleaning). The experimental animals were allowed to eat and drink water freely.
After purchase, the animals were fed normally for at least 3 days. […] Each rat was marked with a tail tag. Animals in the oral administration group were fasted overnight on the day before administration and resumed feeding 4 hours after administration, and free access to water.
• Route of administration: gavage (p.o.) • Concentration: 1 mg/ml • Dose: 10 mg/kg • Volume: 10 mL/kg • Frequency: Single dose
Before administration, checked the condition of the drug formulation and ensured its uniformity by swirling, stirring, or shaking. Calculated the theoretical dosage volume for each SD rat in each group using the following formula.
4. Sample Collection and Processing
Samples were collected from experimental rats at 0.5 h, 1 h, 2 h, 4 h, 6 h, 8 h, and 24 h after administration.
Plasma: At each time point, 0.15 mL of whole blood was collected via the jugular vein and placed in a tube containing anticoagulant (3 μL of 15% EDTA-K2 solution). The tubes were stored on wet ice and centrifuged within 1 hour (2,000 g, 2-8° C., for 10 minutes) to obtain plasma. The plasma was stored in pre-chilled centrifuge tubes, rapidly frozen in dry ice, and then stored at −60° C. or lower in an ultra-low temperature freezer until LC-MS/MS analysis.
Cerebrospinal fluid: the rats was euthanized using the carbon dioxide method. ~50 μL of cerebrospinal fluid was collected using a puncture method, 1 mL syringe was used with the needle bevel facing upward and the needle tip nearly horizontal to puncture the subarachnoid space, secured the needle and slowly withdrew the cerebrospinal fluid. The sample was stored in dry ice within 30 minutes after collection, then transferred it to a −90~−60° C. environment.
Brain tissue: A cardiac perfusion was performed first, followed by brain tissue extraction. Under deep terminal anesthesia, approximately 8 milliliters of physiological saline were used for cardiac perfusion to flush the remaining blood from the brain tissue out of the circulation. After extraction, the brain tissue was gently washed once with frozen physiological saline, blotted up the water, weighed, and then transferred to a storage environment at −90~−60° C. for cryopreservation.
as §1
as §2, with “the sample” for “plasma”
Winnonlin Phoenix 8.1.0.3530 was used to calculate pharmacokinetic parameters: Tmax, Cmax, AUC(0-t), AUC(0-∞), Tu2, MRT(0-∞), etc. […]

[3] = tested on: brain slices containing the hippocampus (CA3 stimulation, CA1 recording); experiment: Electrophysiological LTP recording (fEPSP in hippocampal brain slices); format: cell-based, C57BL/6J mice; details: for activation effects on LTP (in words): same detection method as Table 5
Method: Test Example 3 Electrophysiological LTP Recording
3.1 Preparation of Brain Slices:
C57BL/6J mice aged 6-8 weeks was taken and anesthetized, then quickly decapitated. The scalp was cut open, and removed the skull and dura mater. Quickly removed the whole brain and placed it in 0-4° C. artificial cerebrospinal fluid (ACSF) saturated with 95% O2 and 5% CO2 to cool it slightly. Resected the cerebellum and one-third of the forebrain, divided the brain into two halves along the midline, and dissected the hippocampus along the cortical margin from the medial side of the brain. The brain tissue containing the hippocampus was fixed on a slide dish with glue, and cut into 400-micron-thick brain slices in the coronal plane by a vibrating microtome. The brain slices were then placed in an incubation chamber on a nylon mesh submerged beneath the liquid surface, continuously supplied with a mixed gas, and incubated at 34° C. in a water bath for 0.5 h. The slices were then transferred to room temperature (26±1° C.) for further incubation until ready for use, with the experiment commencing 2-3 hours later.
3.2 In vitro brain slice potential recording:
Under direct visualization with a surgical microscope, a bipolar metal tungsten wire stimulation electrode with exposed tip was placed on the Schaffer collateral pathway of the CA3 region. The stimulation electrode was connected to the stimulator via an isolator, and the recording electrode was connected to a […] via a microelectrode amplifier, and then connected to data acquisition software.
3.3 Electrophysiological recording:
Before recording field excitatory postsynaptic potentials (fEPSPs), the brain slice was transferred to a recording chamber, and continuously perfused the cerebrospinal fluid in a water bath with a mixture of gases (95% 02, 5% CO2). The stimulation electrode was inserted into the CA3 region of the hippocampus, and the recording electrode was inserted into the CA1 region of the hippocampus. When approaching the target location, the insertion depth of the stimulation electrode and recording electrode was slowly and precisely adjusted. At the same time, a pulse with a width of 1 ms was applied every 10-20 s, and the stimulus intensity was adjusted until the optimal fEPSP was achieved. Then the electrode position was fixed, and a stimulus intensity achieving 30-40% of the maximum response elicited at the optimal fEPSP was set as a stimulus intensity to record a baseline of fEPSP. The recording was continued for 20-30 min to establish a stable baseline value. Subsequently, perfusion administration was performed (initial exploratory dose of 30 μM), with the administration duration ranging from 20-30 minutes (depending on the drug's efficacy). If the drug enhanced or reduced fEPSP, normal ACSF was used for elution for 40-60 minutes to observe whether the enhanced effect could be sustained over the long term: if there was no significant change in fEPSP, the experiment was terminated. […] Experimental data and images were processed using Clampfit software.
4. Data Statistics and Analysis:
All experimental data were expressed as mean±standard error (Mean f SEM). All statistical analyses were performed using one-way ANOVA. Significant differences were indicated as follows: *p≤0.05, **p≤0.01, ***p≤0.001. p>0.05 indicated no significant difference.

Row | AUC(0-t) [1] [ng·h/mL] | Cmax [1] [ng/mL] | Tmax [1] [min] | SMILES | activation effects on LTP (in words) [3] | other results
1 | 2500 | 838 | 79.8 | O=C1C=C(OCc2ccc(F)cc2)[C@H](Cc2ccccc2)N1 [Compound 50561, reference compound] | – | –
2 | 3500 | 1020 | 79.8 | O=C1C=C(OCc2ccc(F)cc2)[C@H](Cc2ccccn2)N1 [Compound T-01] | – | Total drug exposure (AUC) in brain tissue ([2]; brain tissue): 1198 ng·h/mL; Total drug exposure (AUC) in brain tissue ([2]; plasma): 1929 ng·h/mL; Kp [2]: 0.621; electrical signal conduction in brain slices (in words) ([3]; perfusion administration, hippocampal slices): significantly enhanced electrical signal conduction in brain slices; activation of LTP compared with the control compound (in words) ([3]; versus Compound 50561): higher activation of LTP
3 | 2470 | 1420 | 25.2 | O=C1C=C(OCc2ccc(F)cc2)[C@H](Cc2ncccc2F)N1 [Compound T-36] | excellent activation effects on LTP | –
4 | 3410 | 1880 | 30 | [2H]C([2H])(OC1=CC(=O)N[C@H]1Cc1ccccc1)c1ccc(F)cc1 [Compound T-45] | – | –
5 | 6730 | 1890 | 90 | C[C@@H](OC1=CC(=O)N[C@H]1Cc1ccccc1)c1ccc(F)cc1 [Compound T-47] | excellent activation effects on LTP | pharmacokinetic properties (in words) [1]: excellent pharmacokinetic properties; Total drug exposure (AUC) in brain tissue ([2]; brain tissue): 11452 ng·h/mL; Total drug exposure (AUC) in brain tissue ([2]; plasma): 5529 ng·h/mL; Kp [2]: 2.07
6 | 5700 | 2970 | 15 | C[C@@H](OC1=CC(=O)N[C@H]1Cc1ccccn1)c1ccc(F)cc1 [Compound T-51] | excellent activation effects on LTP | pharmacokinetic properties (in words) [1]: excellent pharmacokinetic properties
7 | – | – | – | C[C@@H](OC1=CC(=O)N[C@H]1Cc1ncccc1F)c1ccc(F)cc1 [Compound T-54] | excellent activation effects on LTP | –
8 | – | – | – | C[C@H](c1ccccn1)[C@@H]1NC(=O)C=C1OCc1ccc(F)cc1 [Compound T-73] | excellent activation effects on LTP | –
9 | – | – | – | C[C@@H](c1ccccn1)[C@@H]1NC(=O)C=C1OCc1ccc(F)cc1 [Compound T-74] | excellent activation effects on LTP | –
10 | – | – | – | C[C@H](c1ncccc1F)[C@@H]1NC(=O)C=C1OCc1ccc(F)cc1 [Compound T-75] | excellent activation effects on LTP | –
11 | – | – | – | C[C@@H](c1ncccc1F)[C@@H]1NC(=O)C=C1OCc1ccc(F)cc1 [Compound T-76] | excellent activation effects on LTP | –
12 | – | – | – | C[C@H](c1ccccn1)[C@@H]1NC(=O)C=C1O[C@H](C)c1ccc(F)cc1 [Compound T-79] | excellent activation effects on LTP | –
13 | – | – | – | C[C@@H](OC1=CC(=O)N[C@H]1[C@@H](C)c1ccccn1)c1ccc(F)cc1 [Compound T-80] | excellent activation effects on LTP | –
14 | 5800 | 1030 | 49.8 | C[C@@H](c1ccccc1)[C@@H]1NC(=O)C=C1OCc1ccc(F)cc1 [Compound T-95] | – | pharmacokinetic properties (in words) [1]: excellent pharmacokinetic properties
15 | – | – | – | C[C@H](c1ncccc1F)[C@@H]1NC(=O)C=C1O[C@H](C)c1ccc(F)cc1 [Compound T-99] | excellent activation effects on LTP | –
16 | – | – | – | C[C@@H](OC1=CC(=O)N[C@H]1[C@@H](C)c1ncccc1F)c1ccc(F)cc1 [Compound T-100] | excellent activation effects on LTP | –
